Laboratory results published in ChEMBL document CHEMBL3507680, “University of Dundee, Gates Library screen for HepG2 cell viability”.

Test: Human HepG2 cell viability assay in 384 well format
Assay type: toxicity, cell-based
Set-up: dose 125 nL, time 70.5 hour; concentration not given beside the values
Conditions: HepG2 cells, read-out: Inhibition
Molecule `Cc1cnn(CC2CCCN2C(=O)c2ccc(F)c(F)c2)c1` (configuration not stated) has a cytotoxicity at 70.5 h of -0.479%. Molecule `COc1ccc(C(C)NC(=O)N2CCNC(=O)CC2)cc1F` (configuration not stated) has a cytotoxicity at 70.5 h of -1.24%. For `CCOCc1ccccc1NC(=O)NC1CCN(c2ncccn2)CC1`, the cytotoxicity at 70.5 h was -6.67%. In the case of `COC(=O)CN(Cc1ccccc1C)C(=O)COCC1CC1`, the cytotoxicity at 70.5 h is reported as -2.06%. For `CCN1CCC2(CCC1=O)CN(c1cnc3ccccc3n1)CCN2C` (configuration not stated), the cytotoxicity at 70.5 h was -2.99%. For `CN(CCCOc1ccccc1Cl)C(=O)CN1CCCCCC1=O`, the cytotoxicity at 70.5 h was -0.255%. Work on `CC(C)N(C)S(=O)(=O)N(C)Cc1ccc2c(c1)OCCO2` yielded a cytotoxicity at 70.5 h of 4.58%. With `CCCn1[nH]cc/c1=N\C(=O)CN1CCc2cnc(CC)nc2C1` the cytotoxicity at 70.5 h was 2.85%. `Cn1cc(CCNC(=O)NCc2nnc3n2CCC3)cn1` showed a cytotoxicity at 70.5 h of -22.4%. With `CN(C)c1ccc(C(=O)NCCCNc2ccc(C(F)(F)F)cn2)cc1` the cytotoxicity at 70.5 h was -13%. In the case of `CC(C)c1cc(N2CCC3(CCN(C)C3)C2)ncn1` (configuration not stated), the cytotoxicity at 70.5 h is reported as 3.25%. For `C/C=C(\C)CN1C[C@H](NC(=O)c2cnc(O)cn2)C[C@H]1C(=O)NCC`, the cytotoxicity at 70.5 h was -9.9%. In the case of `Cc1csc(N2CCN(CC(=O)Nc3nncs3)CC2C)n1` (configuration not stated), the cytotoxicity at 70.5 h is reported as -10%. `CN1CCN(S(=O)(=O)c2cccc(F)c2)c2ccccc21` gave a cytotoxicity at 70.5 h of 11.9%. Molecule `COCCN1C[C@@H]2CN(Cc3ccsc3)CCC[C@]2(C(=O)O)C1` has a cytotoxicity at 70.5 h of -12.1%. Molecule `COc1ccc(Br)cc1SCCCS(C)(=O)=O` has a cytotoxicity at 70.5 h of -0.49%. For `COCCNC(=O)N1CCCC1COc1ccccc1` (configuration not stated), the cytotoxicity at 70.5 h was -8.27%. Molecule `CCOc1ccc(N2CCCN=C2NC(=O)c2ccc(Cl)cc2)cc1` has a cytotoxicity at 70.5 h of -1.22%. `CCCOc1ccc(CNC2CCCc3c2cnn3CC)cc1OC` (configuration not stated) gave a cytotoxicity at 70.5 h of 29.4%. For `CN1CCCC[C@@H]2[C@H]1[C@@H](c1ccccc1)CCN2C(=O)c1ccncc1`, the cytotoxicity at 70.5 h was -5.64%. Work on `CS(=O)(=O)N1CCOCC2(CCN(c3ccccn3)C2)C1` (configuration not stated) yielded a cytotoxicity at 70.5 h of -10.4%. Molecule `COc1cccc(CN(C)C(=O)CN2CCN(c3nccn3C)CC2)c1` has a cytotoxicity at 70.5 h of -6.12%. In the case of `O=C(c1cccc2c1OCO2)N1CCCC(n2cccn2)C1` (configuration not stated), the cytotoxicity at 70.5 h is reported as -9.01%. `Cc1ccc(C(=O)Nc2ccc(S(=O)(=O)/N=C3\CCCN3C)cc2)s1` gave a cytotoxicity at 70.5 h of -10%. In the case of `CCO[C@H]1CN(C(=O)c2ccnnc2)[C@@H]2COC[C@H]12`, the cytotoxicity at 70.5 h is reported as -10.7%. Work on `Cc1noc(C)c1CN1C[C@H](OCC2CC2)[C@H]2OCCC[C@H]21` yielded a cytotoxicity at 70.5 h of -9.93%. Molecule `Nc1cccc(C2CN(C(=O)CN3CCOCC3)CCO2)n1` (configuration not stated) has a cytotoxicity at 70.5 h of -4.5%. Work on `Cn1c(=O)oc2ccc(NC(=O)N3CCSCC3)cc21` yielded a cytotoxicity at 70.5 h of -18.1%. Molecule `COc1cccc2ncn(C(C)Cn3cccn3)c(=O)c12` (configuration not stated) has a cytotoxicity at 70.5 h of -3.99%. With `CCCc1noc(CCC(=O)N2CCCC(c3ccn[nH]3)C2)n1` (configuration not stated) the cytotoxicity at 70.5 h was -9.26%. Molecule `Cn1cc(C(=O)N2CCN(c3ncccn3)CC2)ccc1=O` has a cytotoxicity at 70.5 h of -2.44%. In the case of `Cc1nc(C(=O)N2CCN(c3ncccn3)[C@@H]3CS(=O)(=O)C[C@@H]32)cs1`, the cytotoxicity at 70.5 h is reported as -7.79%. In the case of `CSCCCN1CC[C@@]2(O)CCN(c3ncccn3)C[C@H]2C1`, the cytotoxicity at 70.5 h is reported as -2.32%. With `OCc1cn(CC2CCN(C3CCSC3)CC2)nn1` (configuration not stated) the cytotoxicity at 70.5 h was -8.28%. For `Cc1ccc(C(N)c2cccs2)cc1` (configuration not stated), the cytotoxicity at 70.5 h was 31.8%. In the case of `CC(C)c1cc(C(=O)N2CCOCC2CC(=O)c2ccco2)nn1C` (configuration not stated), the cytotoxicity at 70.5 h is reported as -0.209%. `COc1cccc(CN(C)C(=O)CN2CCN(CCO)CC2)c1` gave a cytotoxicity at 70.5 h of -7.48%. In the case of `Cc1csc(C2NC3(CCCC3)C(=O)N2CC2CC2)n1` (configuration not stated), the cytotoxicity at 70.5 h is reported as 4.39%. With `COCCN(Cc1c(C)nn(C)c1C)C(=O)C1COc2ccccc2C1` (configuration not stated) the cytotoxicity at 70.5 h was -1.84%. With `CCC1=N[C@@]2(CC[C@@H]3CN(C(=O)NC(C)C)C[C@@H]32)C(=O)N1C` the cytotoxicity at 70.5 h was -1.59%. In the case of `CCN(Cc1cc(Cl)c(O)c(OC)c1)Cc1nc(COC)no1`, the cytotoxicity at 70.5 h is reported as -4.93%. With `COc1ccc(C2CCCN2Cc2nc3c(cnn3C)c(=O)[nH]2)cc1` (configuration not stated) the cytotoxicity at 70.5 h was -8.35%. With `O=C(CC1CCCC1)N1CCN2C[C@@H](CO)[C@H](c3ccccc3)[C@H]2C1` the cytotoxicity at 70.5 h was 24.2%. `O=C(Nc1c(N2CCCC2)cccc1N1CCCC1)c1cnsn1` gave a cytotoxicity at 70.5 h of -16%. Molecule `CN(c1ccncn1)C1CC2(CCN(C(=O)CCc3cccs3)C2)C1` (configuration not stated) has a cytotoxicity at 70.5 h of -10.3%. `CCc1nc2n(n1)CC(NCc1cnc(N(CC)CC)s1)CC2` (configuration not stated) showed a cytotoxicity at 70.5 h of -18.7%. With `CCN(Cc1nccs1)Cc1cc(Cl)ccc1OC` the cytotoxicity at 70.5 h was 2.82%. `CN(CCc1ccccn1)C(=O)Nc1cccnc1N1CCCC1` showed a cytotoxicity at 70.5 h of 11.3%. Molecule `COCCCn1ccc(NCc2ccc(NC(C)=O)cc2)n1` has a cytotoxicity at 70.5 h of -6.7%. Work on `Cn1cc(C(=O)N2CCC(c3ncc[nH]3)CC2)cn1` yielded a cytotoxicity at 70.5 h of -17.5%. Work on `Cc1cnn(CC2CCCN2Cc2nc3ccccc3nc2C)c1` (configuration not stated) yielded a cytotoxicity at 70.5 h of -7.74%. Molecule `Cc1cnn(CC2CN(Cc3nc4ccccc4n3C)CCO2)c1` (configuration not stated) has a cytotoxicity at 70.5 h of 9.31%. `COc1ccc(CNc2ncc(-c3cc(C)no3)c(C(C)C)n2)cc1` showed a cytotoxicity at 70.5 h of -4.08%. For `O=C(C1CCCC1)N1C[C@@H]2CCN(c3cnccn3)C[C@@H]2C1`, the cytotoxicity at 70.5 h was -1.88%. With `COc1cccc(NC(=O)N(CCC(F)(F)F)C[C@H](O)CO)c1` the cytotoxicity at 70.5 h was -4.42%. In the case of `O=C(Nc1ccc(-n2ccc(C(=O)O)n2)cc1)c1ccccc1`, the cytotoxicity at 70.5 h is reported as -1.13%. For `COc1ccccc1OCC(=O)N1CCN(Cc2noc(C)n2)CC1`, the cytotoxicity at 70.5 h was -10.6%. `CCc1ccc(C(=O)N2CCCCC2Cn2cccn2)o1` (configuration not stated) gave a cytotoxicity at 70.5 h of 6.61%. In the case of `CCn1c(SCC(=O)N2CCCC2)nc2cc(C)[nH]c2c1=O`, the cytotoxicity at 70.5 h is reported as 36.5%. In the case of `Cc1cccc2nc(CN3CCCC(Cn4ccnn4)C3)cc(=O)n12` (configuration not stated), the cytotoxicity at 70.5 h is reported as 2.5%. For `Cc1ccc2c(c1)c(C)cc(=O)n2CC(=O)O`, the cytotoxicity at 70.5 h was -2.86%. In the case of `Cc1nc(C)c(COc2ccc(S(=O)(=O)N(C)C)cc2)s1`, the cytotoxicity at 70.5 h is reported as -22.5%. Molecule `Cc1ccc(N2CCCC3(COCCN(c4ncccn4)C3)C2)nn1` (configuration not stated) has a cytotoxicity at 70.5 h of 4.86%. For `CC(C)c1nc2n(n1)CC(NCc1ncc(-c3ccccc3)o1)CC2` (configuration not stated), the cytotoxicity at 70.5 h was -6.07%. `CC(=O)NCCCSCCOc1cccc(C#N)c1` gave a cytotoxicity at 70.5 h of 2.91%. Work on `CCN(CC)CC1CN(Cc2c(C)noc2C)Cc2nccn2C1` (configuration not stated) yielded a cytotoxicity at 70.5 h of -4.28%. With `COc1ccc(CN2CCC(c3nnc(-c4scnc4C)o3)CC2)cc1` the cytotoxicity at 70.5 h was -3.83%. In the case of `CCN1CCC2(COCc3cnc(NCC4CC4)nc32)C1` (configuration not stated), the cytotoxicity at 70.5 h is reported as -4.64%. Molecule `c1ccc(-c2nc(CN3CCCC3Cn3cncn3)cs2)cc1` (configuration not stated) has a cytotoxicity at 70.5 h of 14.3%. In the case of `COc1ncccc1-c1cc(C(=O)NC2CC2)ccn1`, the cytotoxicity at 70.5 h is reported as -8.1%. `Cc1cccc2c1nc1n2[C@@H](CNC(=O)c2ccccn2)COC1` showed a cytotoxicity at 70.5 h of -1.91%. `CC(C)CCC(=O)NC(C)c1nnc2n1CCCCC2` (configuration not stated) gave a cytotoxicity at 70.5 h of -6.87%. With `Cc1nn(C)c2c(N3CCCC3)nc(C3CC3)nc12` the cytotoxicity at 70.5 h was -11.4%. For `CC(C)(C)C(NCC(=O)N1CCNC(=O)C1)c1ccccc1` (configuration not stated), the cytotoxicity at 70.5 h was -107%. For `CC(=O)N(C)C1CCCc2nc(C)sc21` (configuration not stated), the cytotoxicity at 70.5 h was -11%. Molecule `O=C([C@H]1C[C@H]2OCC[C@H]2N(Cc2ccccn2)C1)N1CCCCO1` has a cytotoxicity at 70.5 h of -9.44%. With `Cc1ccc2c(c1)C(=O)NCC1(CCN(C(=O)c3cnccn3)CC1)O2` the cytotoxicity at 70.5 h was -11%. `Cc1cccc(CN2CCC3(CCCN(Cc4cnn(C)c4)C3)C2)n1` (configuration not stated) gave a cytotoxicity at 70.5 h of -14%. For `COCC[C@]1(O)CCN(C2CCN(C(=O)C3CCC3)CC2)C[C@H]1C`, the cytotoxicity at 70.5 h was -9.1%. `O=C(Cc1ccco1)N1C[C@H]2CCC[C@@]2(COCC2CC2)C1` showed a cytotoxicity at 70.5 h of -11.1%. `Cc1cc(S(=O)(=O)NC(C)(C)CN)c(F)cc1F` showed a cytotoxicity at 70.5 h of -9.88%. `Cc1ccc(-n2nnnc2SCN2CCCCC2=O)cc1C` gave a cytotoxicity at 70.5 h of -3.89%.
